This is an account of results in EP3338775B1, “USE OF BUTYLIDENEPHTHALIDE” (Everfront Biotech Inc., priority 2015, dated 2017).

Type in all cases: cell-based
For one experiment, the system named is ALDH. The experiment in a line: ALDEFLUOR flow cytometry analysis of ALDH activity in HNC-TIC-like oral stem cells. The conditions noted are these: DEAB-added group (150 µM DEAB), with or without BP treatment; Figure 8. How it is done: ALDH protein is also an important stemness-maintenance marker of cancer stem cells and participates in the regulation of the self-renewal and differentiation of cancer stem cells. HNC-TIC-like oral stem cells (i.e., ALDH1^+CD44^+-1 cell line or ALDH1^+CD44^+-2 cell line) were treated with different concentrations (0, 25 and 50 µg/ml) of BP for 24 hours, and then, 1 ×10^5 cells obtained from each group were separately suspended in 50 µl of a stem cell detection kit (i.e., ALDEFLUOR array kit, purchased from […] Technologies Inc., Vancouver, Canada) buffer and the cell suspension of each group was separately added with ALDEFLUOR to a final concentration of 1 µM. Thereafter, a sample of each group was stained by […] and then analyzed by flow cytometry analysis to determine the ALDH activity of HNC-TIC-like oral stem cells (i.e., ALDH1^+CD44^+-1 cell line and ALDH1^+CD44^+-2 cell line).
The above experimental procedure was repeated, but the cell suspension of each group was further added with N,N-diethylaminobenzaldehyde (DEAB, i.e., an inhibitor of ALDH) to a final concentration of 150 µM of DEAB separately.

The next experiment deals with brain CSCs ^CD133+. In words: MTT cell viability assay on brain CSCs CD133+. The conditions noted are these: 24-hour group, MTT assay; read-out: IC50 to brain CSCs ^CD133+. The text has this: Thereafter, a cell viability assay, MTT assay, was utilized to analyze the viabilities of brain CSCs ^CD133+ and malignant glioma DBTRG cells. […]
Experiment [1] has as its system malignant glioma DBTRG cells. The experiment in a line: MTT cell viability assay on malignant glioma DBTRG cells. The note with it: 24-hour group. The procedure:
Thereafter, a cell viability assay, MTT assay, was utilized to analyze the viabilities of brain CSCs ^CD133+ and malignant glioma DBTRG cells. […] The results are shown in Figure 1A and Figure 1B for 24-hour group and 48-hour group (i.e., the treatment for 24 hours and 48 hours) and in Table 1 for 24-hour group.

The structures appear in SMILES notation. Values joined by “and” are separate entries in the source; they are usually repeats but may differ in a detail not shown here. Identical values can stand only once.

Take `CCN(CC)c1ccc(C=O)cc1` [DEAB, N,N-diethylaminobenzaldehyde, reference compound]: the “live cells with ALDH activity, of total live cells” value in the experiment on ALDH worked out at 0.1%.
`Cn1nnc2c(C(N)=O)ncn2c1=O` [TMZ, temozolomide, reference compound]: the IC50 in the experiment with brain CSCs ^CD133+ was > 1.6 mM and > 311 µg/mL; in experiment [1] it was 1.66 mM and 322 µg/mL.
In the case of `O=NN(CCCl)C(=O)NCCCl` [BCNU, bis-chloroethylnitrosourea], in experiment [1], the half-maximal inhibitory concentration (IC50) was 352 µM and 75.4 µg/mL.
